Drawing on patent US6413971B1, “Fused bicyclic pyrimidine derivatives” (Pfizer Inc, priority 1996, dated 2002), this text covers melting point for 10 compounds.

Counter-ions that a name gives are not always drawn.

One may read the melting point as the temperature of the solid-liquid transition. For the compound `Oc1cc2ncnc(N3CCc4ccc(Cl)cc43)c2[nH]1` [Example 10, 4-(6Chloro-2,3dihydro-indol-1-yl)-5H-pyrrolo[3,2-d]pyrimidin-6-ol], the melting point is 250 °C (dec.).

`C#Cc1cccc(Nc2ncnc3cnccc23)c1` (as salt: hydrochloride) [Example 24, (3-Ethynyl-phenyl)-pyrido[3,4-d]pyrimidin-4-yl-amine] came in with a melting point of 233 to 235 °C.

For `C#Cc1cccc(Nc2ncnc3[nH]cc(-c4cccs4)c23)c1` [Example 27, (3-Ethynyl-phenyl)-(5-thiophen-2-yl-7H-pyrrolo[2,3-d]pyrimidin4-yl]-amine], the melting point lay within 230 to 232 °C.

Turning to `Cc1cc2c(N3CCc4ccc(Cl)cc43)ncnc2cn1` [Example 16, 4-(6Chloro-2,3-dihydro-indol-1-yl)-6methyl-pyrido[3,4-d]pyrimidine], the melting point was 232 to 234 °C.

Regarding `Clc1ccc2c(c1)N(c1ncnc3cnccc13)CC2` [Example 5, 4-(6-Chloro-2,3dihydro-indol-1-yl)-pyrido[3,4-d]pyrimidine], the melting point lay within 194 to 196 °C.

Compound `C#Cc1cccc(Nc2ncnc3c2ccn3CCOCCOC)c1` [Example 13, (3-Ethynyl-phenyl)-{7-[2-(2-methoxy-ethoxy)-ethyl]-7H-pyrrolo[2,3-d]pyrimidin4-yl}amine] had a melting point of 240 to 241 °C.

The compound `Cc1cc2c(N3CCc4cc(F)c(Br)cc43)ncnc2cn1.Cl` registered a melting point of 262 to 264 °C.

`c1cc2c(Nc3ccc4sccc4c3)ncnc2cn1` (as salt: hydrochloride) [Example 25, Benzo[b]thiophen-5-yl-pyrido[3,4-d]pyrimidin-4-yl-amine] returned a melting point of 280 to 282 °C.

On to `Cc1cc2c(N3CCc4ccc(Br)c(C)c43)ncnc2cn1.Cl`, for which the melting point was 212 to 229 °C.

With `Cc1cc2c(N3CCc4c(Br)ccc(C)c43)ncnc2cn1.Cl`, the melting point fell in the range of 232 to 244 °C.
